Reference: article PMC5047629, “Synthesis, Pharmacological Profile and Docking Studies of New Sulfonamides Designed as Phosphodiesterase-4 Inhibitors” (PLoS ONE, 2016)

Columns and labels:
PDE4A = molecular target: T1, PDE4A (Homo sapiens, UniProt P27815); assay: PDE4A inhibition, IMAP fluorescence polarization protocol; format: biochemical
T1 construct: purchased MDS PHARMA
Description: (§1) The enzymatic reactions were carried at room temperature in a 96-well black plate by co-incubating 25 μL of 200 nM FAM-cAMP (R7513), 5 μL of putative inhibitory compounds and 20 μL of the PDE4 isoform dissolved in assay buffer (R7364) for 1 h. All enzymes were obtained from human recombinant sources (MDS PHARMA), whereas the other reagents were purchased from Molecular Devices. […] PDE4 inhibitors were dissolved in dimethyl sulfoxide (DMSO) at a final concentration of 0.1%.
(§2) The inhibitory activities of the new sulfonamide derivatives were evaluated for their selectivity against the four isoforms of human PDE4, i.e. PDE4A, PDE4B, PDE4C, and PDE4D, using an IMAP-FP protocol.

PDE4B = molecular target: T2, PDE4B (Homo sapiens, UniProt Q07343); assay: PDE4B inhibition, IMAP fluorescence polarization protocol; format: biochemical
T2 construct: purchased MDS PHARMA
T2 sequence (Q07343 whole entry): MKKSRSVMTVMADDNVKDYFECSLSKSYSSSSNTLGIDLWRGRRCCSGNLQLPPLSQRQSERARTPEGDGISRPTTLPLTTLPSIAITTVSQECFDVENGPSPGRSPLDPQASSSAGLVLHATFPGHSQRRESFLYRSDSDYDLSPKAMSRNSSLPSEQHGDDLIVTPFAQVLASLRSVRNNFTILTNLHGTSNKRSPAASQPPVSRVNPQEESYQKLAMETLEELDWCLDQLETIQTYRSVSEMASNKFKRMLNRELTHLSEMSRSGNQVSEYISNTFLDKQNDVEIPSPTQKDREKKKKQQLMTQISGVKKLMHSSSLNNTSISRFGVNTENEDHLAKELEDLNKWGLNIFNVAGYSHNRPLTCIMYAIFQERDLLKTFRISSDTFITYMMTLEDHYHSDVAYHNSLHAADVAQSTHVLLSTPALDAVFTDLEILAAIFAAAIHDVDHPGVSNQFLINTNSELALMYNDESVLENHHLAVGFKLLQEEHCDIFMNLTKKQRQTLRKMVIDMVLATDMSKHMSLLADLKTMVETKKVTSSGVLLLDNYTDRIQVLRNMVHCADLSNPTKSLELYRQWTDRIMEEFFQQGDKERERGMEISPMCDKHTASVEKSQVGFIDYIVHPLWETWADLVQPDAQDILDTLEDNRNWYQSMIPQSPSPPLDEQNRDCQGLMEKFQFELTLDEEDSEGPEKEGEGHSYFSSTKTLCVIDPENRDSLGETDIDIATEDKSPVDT
Description: as §1, §2

PDE4C = molecular target: T3, PDE4C (Homo sapiens, UniProt Q08493); assay: PDE4C inhibition, IMAP fluorescence polarization protocol; format: biochemical
T3 construct: purchased MDS PHARMA
T3 sequence (Q08493 whole entry): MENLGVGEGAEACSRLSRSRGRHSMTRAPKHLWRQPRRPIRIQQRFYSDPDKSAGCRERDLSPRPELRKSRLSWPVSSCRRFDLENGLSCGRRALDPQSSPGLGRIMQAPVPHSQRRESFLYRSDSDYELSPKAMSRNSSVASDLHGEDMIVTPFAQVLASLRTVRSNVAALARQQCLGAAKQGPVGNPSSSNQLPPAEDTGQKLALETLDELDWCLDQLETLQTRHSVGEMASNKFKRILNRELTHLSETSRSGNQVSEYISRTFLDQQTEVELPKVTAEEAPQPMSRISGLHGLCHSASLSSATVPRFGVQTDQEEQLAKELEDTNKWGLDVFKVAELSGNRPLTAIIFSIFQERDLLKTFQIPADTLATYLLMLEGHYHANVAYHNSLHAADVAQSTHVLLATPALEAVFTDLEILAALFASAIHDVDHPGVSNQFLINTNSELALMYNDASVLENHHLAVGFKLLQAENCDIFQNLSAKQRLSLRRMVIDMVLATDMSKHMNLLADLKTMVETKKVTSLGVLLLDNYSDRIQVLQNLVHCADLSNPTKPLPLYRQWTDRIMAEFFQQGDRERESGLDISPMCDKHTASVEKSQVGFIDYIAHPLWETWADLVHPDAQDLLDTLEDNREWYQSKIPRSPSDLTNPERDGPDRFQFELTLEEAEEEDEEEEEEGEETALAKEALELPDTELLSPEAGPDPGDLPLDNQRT
Description: as §1, §2

PDE1B = molecular target: T4, PDE1B (Homo sapiens, UniProt Q01064); assay: PDE selectivity profile evaluated by CEREP; format: biochemical; details: 10 μM; data not shown
T4 construct: CEREP
T4 sequence (Q01064 whole entry): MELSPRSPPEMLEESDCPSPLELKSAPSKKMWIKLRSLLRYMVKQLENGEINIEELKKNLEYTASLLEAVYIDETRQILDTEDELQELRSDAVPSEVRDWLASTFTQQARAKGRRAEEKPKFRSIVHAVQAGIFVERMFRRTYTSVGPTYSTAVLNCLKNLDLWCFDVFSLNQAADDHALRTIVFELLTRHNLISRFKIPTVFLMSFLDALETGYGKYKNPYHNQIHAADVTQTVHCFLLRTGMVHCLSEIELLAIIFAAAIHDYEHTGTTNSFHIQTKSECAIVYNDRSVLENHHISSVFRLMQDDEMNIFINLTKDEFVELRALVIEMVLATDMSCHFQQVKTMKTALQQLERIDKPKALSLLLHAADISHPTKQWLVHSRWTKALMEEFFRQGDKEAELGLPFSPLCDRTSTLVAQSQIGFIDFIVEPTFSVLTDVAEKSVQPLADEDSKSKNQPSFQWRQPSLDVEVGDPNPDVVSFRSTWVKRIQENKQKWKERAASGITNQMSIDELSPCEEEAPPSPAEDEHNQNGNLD
Description: (§3) The selectivity profile of compound 6a (LASSBio-448) toward the human PDE1, PDE2, PDE5-PDE8, PDE10 and PDE11 was evaluated by CEREP.

PDE2A = molecular target: T5, PDE2A (Homo sapiens, UniProt O00408); assay: PDE selectivity profile evaluated by CEREP; format: biochemical; details: 10 μM; data not shown
T5 construct: CEREP
T5 sequence (O00408 whole entry): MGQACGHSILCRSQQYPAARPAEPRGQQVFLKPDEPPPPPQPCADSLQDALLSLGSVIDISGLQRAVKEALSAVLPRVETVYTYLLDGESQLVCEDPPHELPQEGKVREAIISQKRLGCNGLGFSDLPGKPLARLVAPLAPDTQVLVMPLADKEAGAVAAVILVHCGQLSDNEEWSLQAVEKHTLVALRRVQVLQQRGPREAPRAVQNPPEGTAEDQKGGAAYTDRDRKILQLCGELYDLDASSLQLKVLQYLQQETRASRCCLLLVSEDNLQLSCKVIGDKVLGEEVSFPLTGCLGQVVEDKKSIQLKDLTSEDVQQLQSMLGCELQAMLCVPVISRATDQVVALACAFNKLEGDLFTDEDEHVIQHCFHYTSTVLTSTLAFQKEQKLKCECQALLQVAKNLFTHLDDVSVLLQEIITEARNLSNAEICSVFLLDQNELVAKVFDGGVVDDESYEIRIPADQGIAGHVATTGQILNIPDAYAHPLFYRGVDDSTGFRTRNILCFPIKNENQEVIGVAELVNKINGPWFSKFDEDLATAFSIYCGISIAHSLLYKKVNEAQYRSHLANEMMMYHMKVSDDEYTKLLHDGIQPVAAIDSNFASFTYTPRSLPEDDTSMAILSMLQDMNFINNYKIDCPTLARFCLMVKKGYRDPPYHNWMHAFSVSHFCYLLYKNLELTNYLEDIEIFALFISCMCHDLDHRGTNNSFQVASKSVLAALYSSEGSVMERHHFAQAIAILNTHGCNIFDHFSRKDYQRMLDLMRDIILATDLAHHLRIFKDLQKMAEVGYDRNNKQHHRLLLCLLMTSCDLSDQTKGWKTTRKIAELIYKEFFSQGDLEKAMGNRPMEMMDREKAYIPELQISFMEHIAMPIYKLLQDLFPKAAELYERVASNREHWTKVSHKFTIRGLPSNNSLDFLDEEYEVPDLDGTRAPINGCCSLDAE
Description: as §3

guinea-pig trachea = assay: Tracheal smooth muscle contraction in vitro induced by carbachol; details: 100 μM, S1A Fig
Description: Tracheas from guinea pigs were obtained and prepared as described previously. An initial tension of 1 g was applied to the tracheas for 60 min to obtain a constant resting tension. To confirm the viability of the preparation, the response to carbachol (2.5 μM) was recorded. After washout of carbachol and re-establishement of the baseline resting tension, tissues were preincubated with LASSBio-448 (100 μM) or vehicle (DMSO 0.1%) 15 min before re-exposed to cumulative addition of carbachol (10^−8–10^−4 M). The tracheal rings were pretreated 10 min before application of LASSBio-448 with 100 μM SQ22536 (adenylyl cyclase inhibitor). Stimulation-induced isometric contractile responses were measured with a force-displacement transducer (Ugo Basile, Comerio, Italy) and the readout used to assess contractility was obtained by isolated organ data acquisition software (Proto 5; Letica Scientific Instruments, Barcelona, Spain). Contractile responses were expressed as a percentage of the maximal contraction induced by 2.5 μM carbachol.

A/J mice [1] = assay: LPS-induced lung inflammation and airway hyper-reactivity; format: in vivo; details: LASSBio-448 2.5 and 10 mg/kg oral, cilomilast 1 mg/kg oral, 1 h before LPS, 24 h post-challenge
Description: A/J mice were anesthetized with isoflurane aerosol and then challenged with LPS (25μg/25 μL) or phosphate buffered solution (PBS) by intranasal instillation as reported. The analyses were performed 24 h after stimulation. Treatment with LASSBio-448 (2.5–10 mg/kg/mice) or cilomilast (1 mg/kg) was performed orally, 1 h before LPS exposure. LASSBio-448 was dissolved in 0.2% Tween 80, while cilomilast was dissolved in 1 M NaOH and further neutralized with 1 N HCl, before adjusting the final volume with 0.9% NaCl solution (saline). The substances were dissolved immediately before use.
Airflow and transpulmonary pressure were recorded with a Buxco pulmonary mechanics processing system (Buxco Electronics, Sharon, CT), which calculated resistance (cmH2O.s/ml) and dynamic lung compliance (mL/cmH2O) in each breath cycle. Elastance was calculated as the inverse of compliance values. Mice were anesthetized with nembutal (60 mg/kg), and the neuromuscular activity was blocked with bromide pancuronium (1 mg/kg). Animals were allowed to stabilize for 5 min and increasing concentrations of methacholine (3–27 mg/mL) were aerosolized for 5 min each. Baseline pulmonary parameters were assessed with aerosolized phosphate buffer solution (PBS).
The MPO activity present in the lung tissue was colorimetrically determined as described by Hirano (1996), with minor changes. Briefly, after lung perfusion with 20 mM EDTA in 0.9% saline, lung samples were homogenized in Hank´s balanced solution (HBSS) at pH 7.4. The homogenates were centrifuged for 10 min at 1300 xg and 4°C. Red blood cells were removed by hypotonic and hypertonic lysis and suspended cells were re-centrifuged as described above. The pellet was then suspended in HBSS at pH 7.4 containing 0.5% hexadecyltrimethyl ammonium bromide (HTAB). The homogenates were centrifuged for 30 min at 12500 xg and 4°C. The supernatants were then collected and incubated with 0.167 mg/mL of ortho-dianisidine dihydrochloride for 15 min at 37°C, after which 0.0006% H2O2 in 50 mM phosphate buffer at pH 6 was added. The reaction was stopped 10 min later by adding 50 μL of 1% sodium azide. The measurement was done at 460 nm using the SpectraMax M5 microplate reader (Molecular Devices).

A/J mice [2] = assay: Duration of xylazine/ketamine anesthesia (behavioral correlate of emesis); format: in vivo
Description: This assessment was carried out as previously reported. […] The animals were placed in dorsal position and their spontaneous return to the prone position was used as an endpoint to determine anesthesia duration.

[3] = 1 μM, mean ± SEM, 3 experiments
[4] = recombinant enzyme, mean ± SEM of three measurements

T1 sequence (P27815 1-647 isoform P27815-4): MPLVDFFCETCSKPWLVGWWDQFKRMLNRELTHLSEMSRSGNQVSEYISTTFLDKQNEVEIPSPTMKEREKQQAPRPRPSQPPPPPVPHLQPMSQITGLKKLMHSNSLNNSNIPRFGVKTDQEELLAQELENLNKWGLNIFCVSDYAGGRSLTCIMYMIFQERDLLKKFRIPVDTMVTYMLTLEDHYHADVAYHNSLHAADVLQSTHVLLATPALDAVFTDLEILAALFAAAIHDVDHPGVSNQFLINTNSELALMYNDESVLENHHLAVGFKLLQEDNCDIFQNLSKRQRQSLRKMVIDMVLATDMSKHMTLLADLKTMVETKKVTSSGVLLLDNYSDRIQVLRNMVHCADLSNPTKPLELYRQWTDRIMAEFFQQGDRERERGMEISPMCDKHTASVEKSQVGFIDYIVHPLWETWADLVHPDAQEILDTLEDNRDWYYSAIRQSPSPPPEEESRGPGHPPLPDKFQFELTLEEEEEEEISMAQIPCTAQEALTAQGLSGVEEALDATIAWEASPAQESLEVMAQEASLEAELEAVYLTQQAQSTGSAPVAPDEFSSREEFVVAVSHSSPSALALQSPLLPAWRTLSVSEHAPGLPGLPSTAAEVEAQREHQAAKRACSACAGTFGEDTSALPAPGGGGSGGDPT

## COc1ccc(CCNS(=O)(=O)c2cc3c(cc2C)OCO3)cc1OC [6a (LASSBio-448), N-(3,4-dimethoxyphenethyl)-6-methylbenzo[d][1, 3]dioxole-5-sulfonamide]
PDE4A; [3]
  PDE4A1A inhibition: able to inhibit
PDE4A; 1 μM, mean ± SEM, 3 experiments, read-out: PDE4A1A inhibition
  inhibition at 1 µM: 36.5 ± 0.7%
PDE4A; [4]
  IC50: 700 ± 70 nM
PDE4B; [3]
  PDE4B1 inhibition: able to inhibit
PDE4B; 1 μM, mean ± SEM, 3 experiments, read-out: PDE4B1 inhibition
  inhibition at 1 µM: 31 ± 1.1%
PDE4B; [4]
  IC50: 1400 ± 90 nM
PDE4C; [3]
  PDE4C inhibition: able to inhibit
  inhibition at 1 µM: 33.7 ± 0.4%
PDE4C; [4]
  IC50: 1100 ± 130 nM
PDE1B
  inhibition of PDE1B: unable to inhibit
PDE2A
  inhibition of PDE2A: unable to inhibit
guinea-pig trachea
  tracheal contraction induced by cumulative carbachol: inhibited
guinea-pig trachea; pre-treatment with 100 μM SQ22,536 (adenylyl cyclase inhibitor)
  relaxant effect after pre-treatment with SQ22,536: clearly abrogated
A/J mice [1]; Fig 9A
  LPS-induced airway hyper-reactivity (lung elastance after methacholine 3–27 mg/ml): dose-dependently prevented
A/J mice [1]; Fig 9B
  neutrophil infiltration into the lung tissue (MPO activity): marked reduction
A/J mice [2]; 11 μmol/Kg oral
  reduction of sleep time (duration of xylazine/ketamine anesthesia): 24.1%
A/J mice [2]; 27 μmol/Kg oral
  reduction of sleep time (duration of xylazine/ketamine anesthesia): 26.6%
A/J mice [2]; 80 μmol/Kg oral
  reduction of sleep time (duration of xylazine/ketamine anesthesia): 35.5%
A/J mice [2]; vs rolipram
  fold less pro-emetic than rolipram: at least 7 fold
